Consider seven compounds from EPA's CvTdb concentration-time database.

The test system of series [1] is Rat. Briefly: concentration in heart after dosing. The settings on record: 10 min; dosed: Bis 2-Chloroethoxy Methane; 20 mg/kg; iv; Male; F344.
In series [2] the test system is Rat. Description: concentration in thymus after dosing. The settings on record: 5 h; dosed: Bis 2-Chloroethoxy Methane; 20 mg/kg; iv; Female; F344.
Series [3] relates to Rat. Briefly: concentration in heart after dosing. The settings on record: 10 min; dosed: Bis 2-Chloroethoxy Methane; 20 mg/kg; iv; Female; F344.
In series [4] the test system is Rat. Description: concentration in plasma after dosing. To be noted: dosed: Bis 2-Chloroethoxy Methane, 40 mg/kg, iv, Male, Harlan Sprague Dawley.
Series [5] concerns Rat. Briefly: concentration in plasma after dosing. The settings on record: dosed: Bis 2-Chloroethoxy Methane, 40 mg/kg, iv, Male, Harlan Sprague Dawley. This is another data set of the same source.
Series [6] concerns Rat. Briefly: concentration in thymus after dosing. The settings on record: 5 h; dosed: Bis 2-Chloroethoxy Methane; 20 mg/kg; iv; Female; F344. The source holds these as a separate data set.
Series [7] has as its system Rat. Description: concentration in thymus after dosing. The settings on record: 2 h; dosed: Bis 2-Chloroethoxy Methane; 20 mg/kg; iv; Male; F344.
The test system of series [8] is Rat. Briefly: concentration in plasma after dosing. To be noted: 5 min; dosed: Fluorotelomer alcohol 8+2; 12 mg/kg; iv; Male; F344.
Series [9] relates to Rat. Description: concentration in brain after dosing. To be noted: 1 h; dosed: Fluorotelomer alcohol 8+2; 80 mg/kg; oral; Female; Harlan Sprague Dawley.
Series [10] relates to Rat. Briefly: concentration in plasma after dosing. The settings on record: dosed: Fluorotelomer alcohol 8+2, 40 mg/kg, iv, Male, F344.
In series [11] the test system is Rat. Description: concentration in liver after dosing. To be noted: 0.5 h; dosed: Fluorotelomer alcohol 8+2; 80 mg/kg; oral; Female; Harlan Sprague Dawley.
Series [12] has as its system Rat. Description: concentration in brain after dosing. To be noted: 12 h; dosed: Fluorotelomer alcohol 8+2; 24 mg/kg; oral; Male; Harlan Sprague Dawley.
In series [13] the test system is Rat. Briefly: concentration in kidney after dosing. The settings on record: 12 h; dosed: Fluorotelomer alcohol 8+2; 80 mg/kg; oral; Female; Harlan Sprague Dawley.
For series [14], the system named is Rat. Description: concentration in plasma after dosing. To be noted: 20 h; dosed: Di-n-butyl phthalate; 200 mg/kg; oral; Male; Sprague-Dawley.
The subject of series [15] is Rat. Briefly: concentration in plasma after dosing. The settings on record: 6 h; dosed: Di-n-butyl phthalate; 20 mg/kg; iv; Male; Sprague-Dawley.
Series [16] concerns Rat. Briefly: concentration in plasma after dosing. To be noted: 5 min; dosed: Di-n-butyl phthalate; 20 mg/kg; iv; Male; Sprague-Dawley.
Series [17] relates to Rat. Description: concentration in plasma after dosing. To be noted: 3 h; dosed: Di-n-butyl phthalate; 100 mg/kg; oral; Male; Sprague-Dawley.
The test system of series [18] is Rat. Briefly: concentration in liver after dosing. To be noted: 3360 h; dosed: Perfluorodecanoic acid; 10 mg/kg; oral; Female; Harlan Sprague Dawley.
In series [19] the test system is Rat. Briefly: concentration in plasma after dosing. To be noted: dosed: Perfluorodecanoic acid, 2 mg/kg, oral, Male, Harlan Sprague Dawley.
The subject of series [20] is Rat. Description: concentration in liver after dosing. To be noted: 1848 h; dosed: Perfluorodecanoic acid; 10 mg/kg; oral; Female; Harlan Sprague Dawley.
Series [21] has as its system Rat. Description: concentration in plasma after dosing. The settings on record: dosed: Perfluorodecanoic acid, 2 mg/kg, iv, Male, F344.
Series [22] has as its system Rat. Briefly: concentration in plasma after dosing. To be noted: 22 h; dosed: Primidone; 80 mg/kg; oral; Female; F344.
Series [23] relates to Rat. Description: concentration in plasma after dosing. To be noted: 6 h; dosed: Primidone; 130 mg/kg; oral; Female; F344.
Series [24] concerns Rat. Briefly: concentration in plasma after dosing. To be noted: 12 h; dosed: Primidone; 80 mg/kg; oral; Female; F344.
Series [25] relates to Rat. Briefly: concentration in plasma after dosing. The settings on record: 1.5 h; dosed: Primidone; 30 mg/kg; oral; Female; F344.
Series [26] has as its system Rat. Briefly: concentration in plasma after dosing. To be noted: 10 min; dosed: Thiodiglycolic Acid; 20 mg/kg; iv; Female; Harlan Sprague Dawley.
Series [27] deals with Rat. Briefly: concentration in plasma after dosing. To be noted: 10 min; dosed: Thiodiglycolic Acid; 20 mg/kg; iv; Male; F344.
Series [28] has as its system Rat. Briefly: concentration in liver after dosing. To be noted: 3 h; dosed: Thiodiglycolic Acid; 20 mg/kg; iv; Male; Harlan Sprague Dawley.
The subject of series [29] is Rat. Description: concentration in thymus after dosing. The settings on record: 4 h; dosed: Thiodiglycolic Acid; 20 mg/kg; iv; Female; Harlan Sprague Dawley.
Series [30] concerns Rat. Description: concentration in plasma after dosing. The settings on record: 10 min; dosed: Thiodiglycolic Acid; 20 mg/kg; iv; Male; F344. This is another data set of the same source.
The subject of series [31] is Rat. Briefly: concentration in plasma after dosing. The settings on record: 20 min; dosed: Thiodiglycolic Acid; 20 mg/kg; iv; Female; Harlan Sprague Dawley.
The test system of series [32] is Rat. Briefly: concentration in plasma after dosing. The settings on record: 2 h; dosed: Thiodiglycolic Acid; 20 mg/kg; iv; Male; Harlan Sprague Dawley.
For series [33], the system named is Rat. Description: concentration in thymus after dosing. The settings on record: 20 min; dosed: Thiodiglycolic Acid; 20 mg/kg; iv; Female; Harlan Sprague Dawley.
Series [34] deals with Rat. Description: concentration in plasma after dosing. To be noted: dosed: dichloroacetic acid, 10 mg/kg, oral, Male, Harlan Sprague Dawley.
The test system of series [35] is Rat. Briefly: concentration in plasma after dosing. The settings on record: 0.25 h; dosed: dichloroacetic acid; 10 mg/kg; oral; Male; Harlan Sprague Dawley.

As to `ClCCOCOCCCl` [Bis 2-Chloroethoxy Methane], the results for the concentration in heart with Rat [1] and in the series with Rat [3] were 13200 ng/g and 11400 ng/g, respectively. Moreover, the concentration in thymus in the series on Rat [2] is 31.7 ng/g; with Rat [6], 79.1 ng/g; in the series with Rat [7], 153 ng/g. Besides, the concentration in plasma with Rat [4] (10 min) was 22600 ng/mL; with Rat [4] (5.333 h) it was 67 ng/mL; with Rat [5] (20 min), 9720 ng/mL; in the series on Rat [5] (6.667 h), 40.1 ng/mL.

As to `OCCC(F)(F)C(F)(F)C(F)(F)C(F)(F)C(F)(F)C(F)(F)C(F)(F)C(F)(F)F` [Fluorotelomer alcohol 8+2], the concentration in plasma was 24300 ng/mL in the series on Rat [8], 22400 ng/mL in the series with Rat [10] (5 min) and 516 ng/mL in the series with Rat [10] (3 h). Further, the concentration in brain in the series on Rat [9] turned out to be 3370 ng/g; with Rat [12] it was 221 ng/g. The compound also came in with a concentration in liver with Rat [11] of 4040 ng/g. This compound had a concentration in kidney in the series with Rat [13] of 351 ng/g.

As for `CCCCOC(=O)c1ccccc1C(=O)O` [Mono-n-butyl phthalate], the concentration in plasma was found to be 1870 ng/mL in the series on Rat [14], 1110 ng/mL in the series with Rat [15], 22800 ng/mL in the series on Rat [16] and 6970 ng/mL in the series with Rat [17].

For the compound `O=C(O)C(F)(F)C(F)(F)C(F)(F)C(F)(F)C(F)(F)C(F)(F)C(F)(F)C(F)(F)C(F)(F)F` [Perfluorodecanoic acid], the results for the concentration in liver in the series on Rat [18] and in the series with Rat [20] were 7670 ng/g and 27400 ng/g, respectively. The concentration in plasma in the series with Rat [19] (12 h) was 7480 ng/mL; with Rat [19] (1200 h), 1470 ng/mL; with Rat [21] (24 h), 5580 ng/mL; in the series with Rat [21] (1848 h), 884 ng/mL.

Consider `CCC1(c2ccccc2)C(=O)NC(=O)NC1=O` [Phenobarbital], for which the concentration in plasma with Rat [22] came to 1710 ng/mL; in the series on Rat [23], 2210 ng/mL; in the series with Rat [24], 2260 ng/mL; in the series on Rat [25], 380 ng/mL.

As for `O=C(O)CSCC(=O)O` [Thiodiglycolic Acid], the concentration in plasma in the series on Rat [26] is 40400 ng/mL; with Rat [27], 25400 ng/mL; in the series with Rat [30] it was 34600 ng/mL; with Rat [31] it was 16300 ng/mL; with Rat [32] it was 934 ng/mL. In the series on Rat [28], this compound had a concentration in liver of 59900 ng/g. Besides, the concentration in thymus turned out to be 637 ng/g in the series with Rat [29] and 5770 ng/g in the series on Rat [33].

`O=C(O)C(Cl)Cl` [dichloroacetic acid]: the figures for the concentration in plasma in the series on Rat [34] (2 min), in the series on Rat [34] (0.5 h) and in the series on Rat [35] were 405 ng/mL, 274 ng/mL and 720 ng/mL, respectively.
